Results as given in US20240391931A1 (Bristol-Myers Squibb Company, priority 2021, published 2024).
Structures can show the parent of a compound that is named as a salt. Where two headings read alike, the source gives them in different places.

Columns and labels:
EGFR = EGFR (Homo sapiens, UniProt P00533); assay: EGFR signaling (pEGFR Tyr1068/total EGFR MSD) in A431 cells; assay type: cell-based; design: endogenous in cells; host or cells: A431, N87; details: for Selectivity A431 EC50/BT474 EC50: ratio A431 pEGFR EC50 to BT474 pHER2 EC50; for Selectivity A431 EC50/HEKYVMA EC50: ratio A431 pEGFR EC50 to HEK YVMA pHER2 EC50
Chain of EGFR (P00533 25-1210): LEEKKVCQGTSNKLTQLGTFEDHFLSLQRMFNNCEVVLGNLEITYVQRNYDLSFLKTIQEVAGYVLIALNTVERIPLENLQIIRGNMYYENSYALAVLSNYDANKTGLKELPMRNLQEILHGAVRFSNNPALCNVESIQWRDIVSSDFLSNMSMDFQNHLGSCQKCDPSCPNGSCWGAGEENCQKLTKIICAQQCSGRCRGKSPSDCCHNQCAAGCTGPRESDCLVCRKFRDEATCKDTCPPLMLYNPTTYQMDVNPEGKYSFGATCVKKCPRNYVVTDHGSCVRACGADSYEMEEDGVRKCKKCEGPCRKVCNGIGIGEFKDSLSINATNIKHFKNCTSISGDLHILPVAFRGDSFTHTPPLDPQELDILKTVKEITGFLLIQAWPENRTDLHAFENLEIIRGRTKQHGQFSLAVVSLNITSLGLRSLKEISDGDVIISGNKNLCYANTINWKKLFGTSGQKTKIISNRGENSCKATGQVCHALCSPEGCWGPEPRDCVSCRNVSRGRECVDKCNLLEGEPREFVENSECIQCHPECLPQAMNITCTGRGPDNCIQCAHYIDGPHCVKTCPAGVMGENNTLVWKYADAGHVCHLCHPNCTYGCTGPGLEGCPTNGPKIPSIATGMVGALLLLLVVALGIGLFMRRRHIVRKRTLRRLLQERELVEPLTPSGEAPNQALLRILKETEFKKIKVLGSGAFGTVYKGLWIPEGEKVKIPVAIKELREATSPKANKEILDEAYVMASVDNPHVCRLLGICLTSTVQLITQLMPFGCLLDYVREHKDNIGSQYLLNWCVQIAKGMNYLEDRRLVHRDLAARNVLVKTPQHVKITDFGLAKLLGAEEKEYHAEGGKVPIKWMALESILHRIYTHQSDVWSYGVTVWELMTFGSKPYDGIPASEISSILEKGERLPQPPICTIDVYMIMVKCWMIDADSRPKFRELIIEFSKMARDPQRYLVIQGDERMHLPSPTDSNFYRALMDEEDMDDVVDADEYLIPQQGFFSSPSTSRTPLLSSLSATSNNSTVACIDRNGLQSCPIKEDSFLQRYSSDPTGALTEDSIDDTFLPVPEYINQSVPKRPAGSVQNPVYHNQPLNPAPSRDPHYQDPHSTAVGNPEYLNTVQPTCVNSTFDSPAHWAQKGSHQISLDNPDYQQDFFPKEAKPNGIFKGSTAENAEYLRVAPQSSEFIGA
Method in brief: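 Serum-starved A431 cells were pretreated 1.5 h in 1% FBS with compound (0.005–10 μM, 0.1% DMSO), then stimulated with 100 ng/mL human EGF for 10 min. Lysate pEGFR Tyr1068 was measured by MSD and normalized to total EGFR as % DMSO control; EC50 from variable-slope sigmoidal fit.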

HER2YVMA = HER2YVMA (Homo sapiens, UniProt P04626, INS775YVMA); assay: HER2 signaling (pHER2) in Hek293-HER2YVMA cells; assay type: cell-based; design: expressed in transfected cells; host or cells: HEK293 (pool), Ba/F3 (clones), BEAS2B (clones); lentiviral vector pCDH-CMV-MCS-EF1-Neo; details: 1.5 hr compound, 1% FBS, read-out: HEKYVMA pHER2 EC50
Chain of HER2YVMA (P04626 with tags, fused parts or gaps INS775YVMA): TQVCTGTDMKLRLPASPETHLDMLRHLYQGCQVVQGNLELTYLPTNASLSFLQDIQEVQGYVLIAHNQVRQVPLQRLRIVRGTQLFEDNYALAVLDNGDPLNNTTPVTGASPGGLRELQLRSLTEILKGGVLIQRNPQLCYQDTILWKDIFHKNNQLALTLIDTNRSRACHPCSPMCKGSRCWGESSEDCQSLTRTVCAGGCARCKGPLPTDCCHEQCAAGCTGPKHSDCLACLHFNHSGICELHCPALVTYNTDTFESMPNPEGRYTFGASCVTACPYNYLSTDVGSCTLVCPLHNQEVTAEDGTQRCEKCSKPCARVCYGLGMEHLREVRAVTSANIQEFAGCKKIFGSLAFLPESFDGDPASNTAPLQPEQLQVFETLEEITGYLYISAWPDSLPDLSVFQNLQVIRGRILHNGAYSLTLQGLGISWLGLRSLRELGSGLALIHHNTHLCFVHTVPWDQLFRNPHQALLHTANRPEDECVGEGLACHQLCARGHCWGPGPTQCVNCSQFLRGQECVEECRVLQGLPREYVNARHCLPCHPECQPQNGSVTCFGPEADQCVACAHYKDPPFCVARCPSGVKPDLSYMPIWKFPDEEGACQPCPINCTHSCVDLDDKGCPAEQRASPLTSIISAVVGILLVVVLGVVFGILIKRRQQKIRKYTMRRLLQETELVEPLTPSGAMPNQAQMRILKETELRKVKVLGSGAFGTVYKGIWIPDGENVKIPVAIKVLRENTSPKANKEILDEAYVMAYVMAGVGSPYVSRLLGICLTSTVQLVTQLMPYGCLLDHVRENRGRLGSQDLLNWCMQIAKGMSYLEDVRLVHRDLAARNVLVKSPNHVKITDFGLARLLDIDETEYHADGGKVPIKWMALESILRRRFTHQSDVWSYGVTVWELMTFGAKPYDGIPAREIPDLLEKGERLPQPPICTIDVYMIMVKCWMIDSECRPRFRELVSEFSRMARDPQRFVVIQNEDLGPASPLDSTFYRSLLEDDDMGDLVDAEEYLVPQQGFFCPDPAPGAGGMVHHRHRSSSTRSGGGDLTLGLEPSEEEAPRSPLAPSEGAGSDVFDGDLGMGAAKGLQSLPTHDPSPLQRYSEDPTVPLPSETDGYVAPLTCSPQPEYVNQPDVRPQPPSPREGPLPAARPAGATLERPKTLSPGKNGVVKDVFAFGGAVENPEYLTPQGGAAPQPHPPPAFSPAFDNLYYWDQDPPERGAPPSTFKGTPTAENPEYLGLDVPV
Method in brief: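 Lentivirally transduced HER2YVMA lines (HEK293 pool; BEAS2B clone) treated 1.5 h at 37 °C in 1% FBS medium with compound at 0.0005–1.1 μM. Lysates read by MSD immunoassay for pHER2 (Tyr1248) normalized to total HER2, as % DMSO control; EC50 from variable-slope sigmoidal fit.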

[1] = A431 cells, read-out: A431 pEGFR EC50

| SMILES | EC50 (EGFR; [1]) | Selectivity A431 EC50/BT474 EC50 (EGFR) | Selectivity A431 EC50/HEKYVMA EC50 (EGFR) | EC50 (HER2YVMA) | EC50 (EGFR; A431 pEGFR EC50, A431 cells) |
| --- | --- | --- | --- | --- | --- |
| Cc1ccc(Oc2ccc(Nc3ncnc4sc5c(c34)C(C)CN(C(=O)C=CCN3CCOCC3)C5)cc2C)cn1 (single isomer, unassigned) [Compound 177] | 100 to 1000 nM | C (C: ≥ 10 and < 20) | D (D: ≥ 5 and < 10) | < 100 nM | – |
| Cc1ccc(Oc2ccc(Nc3ncnc4sc5c(c34)CCN(C(=O)/C=C/CN3CC4CCC(C3)O4)C5)cc2C)cn1 [Compound 13] | 100 to 1000 nM | C (C: ≥ 10 and < 20) | C (C: ≥ 10 and < 20) | < 100 nM | – |
| Cc1ccc(Oc2ccc(Nc3ncnc4sc5c(c34)CCN(C(=O)/C=C/CN3CC[C@@H](CO)C3)C5)cc2C)cn1 [Compound 132] | 100 to 1000 nM | B (B: ≥ 20 and < 100) | C (C: ≥ 10 and < 20) | < 100 nM | – |
| COc1ccc(Oc2ccc(Nc3ncnc4sc5c(c34)CCN(C(=O)/C=C/CN3CC[C@H](CO)C3)C5)cc2C)cn1 [Compound 140] | 100 to 1000 nM | B (B: ≥ 20 and < 100) | C (C: ≥ 10 and < 20) | < 100 nM | – |
| Cc1ccc(Oc2ccc(Nc3ncnc4sc5c(c34)CCN(C(=O)/C=C/CN3CC(C)OC(C)C3C)C5)cc2C)cn1 (centres unmarked) [Compound 117] | 100 to 1000 nM | B (B: ≥ 20 and < 100) | B (B: ≥ 20 and < 100) | < 100 nM | – |
| Cc1ccc(Oc2ccc(Nc3ncnc4sc5c(c34)CCN(C(=O)/C=C/CN3CCC[C@@H](CO)C3)C5)cc2C)cn1 [Compound 154] | < 100 nM | C (C: ≥ 10 and < 20) | E (E: >1 and < 5) | < 100 nM | – |
| Cc1cc(Nc2ncnc3sc4c(c23)CCN(C(=O)/C=C/CN(C)C)C4)ccc1Oc1ccc(N(C)C)nc1 [Compound 158, (E)-4-(dimethylamino)-1-(4-((4-((6-(dimethylamino)pyridin-3-yl)oxy)-3-methylphenyl)amino)-5,8-dihydropyrido[4′,3′:4,5]thieno[2,3-d]pyrimidin-7(6H)-yl)but-2-en-1-one] | 100 to 1000 nM | B (B: ≥ 20 and < 100) | B (B: ≥ 20 and < 100) | < 100 nM | – |
| Cc1ccc(Oc2ccc(Nc3ncnc4sc5c(c34)C(C)CN(C(=O)/C=C/CN(C)C(C)(C)C)C5)cc2C)cn1 (centres unmarked) [Compound 175] | < 100 nM | C (C: ≥ 10 and < 20) | E (E: >1 and < 5) | < 100 nM | – |
| Cc1ccc(Oc2ccc(Nc3ncnc4sc5c(c34)CCN(C(=O)/C=C/CN3CC4CC4(CO)C3)C5)cc2C)cn1 (centres unmarked) [Compound 118] | 100 to 1000 nM | A (A: ≥100) | B (B: ≥ 20 and < 100) | < 100 nM | – |
| Cc1ccc(Oc2ccc(Nc3ncnc4sc5c(c34)CN(C(=O)/C=C/CN(C)C)CC5)cc2C)cn1 [Compound 108, (E)-4-(Dimethylamino)-1-(4-((3-methyl-4-((6-methylpyridin-3-yl)oxy)phenyl)amino)-7,8-dihydropyrido[3′,4′:4,5]thieno[2,3-d]pyrimidin-6(5H)-yl)but-2-en-1-one] | < 100 nM | C (C: ≥ 10 and < 20) | C (C: ≥ 10 and < 20) | < 100 nM | – |
| Cc1ccc(Oc2ccc(Nc3ncnc4sc5c(c34)CCN(C(=O)/C=C/CN(C)C)C5)cc2C)cn1 [Compound 8, (E)-4-(Dimethylamino)-1-(4-((3-methyl-4-((6-methylpyridin-3-yl)oxy)phenyl)amino)-5,6-dihydropyrido[4′,3′:4,5]thieno[2,3-d]pyrimidin-7(8H)-yl)but-2-en-1-one] | < 100 nM | C (C: ≥ 10 and < 20) | C (C: ≥ 10 and < 20) | < 100 nM | – |
| Cc1ccc(Oc2ccc(Nc3ncnc4sc5c(c34)CN(C(=O)/C=C/CN(C)C)C5)cc2Cl)cn1 [Compound 129, (E)-1-(4-((3-Chloro-4-((6-methylpyridin-3-yl)oxy)phenyl)amino)-5H-pyrrolo[3′,4′:4,5]thieno[2,3-d]pyrimidin-6(7H)-yl)-4-(dimethylamino)but-2-en-1-one] | 100 to 1000 nM | B (B: ≥ 20 and < 100) | B (B: ≥ 20 and < 100) | < 100 nM | – |
| Cc1ccc(Oc2ccc(Nc3ncnc4sc5c(c34)CCN(C(=O)/C=C/CN3CCO[C@@H](CO)C3)C5)cc2C)cn1 [Compound 144] | 100 to 1000 nM | B (B: ≥ 20 and < 100) | D (D: ≥ 5 and < 10) | 100 to 350 nM | – |
| Cc1ccc(Oc2ccc(Nc3ncnc4sc5c(c34)C(C)CN(C(=O)C=CCN(C)C(C)(C)C)C5)cc2C)cn1 (single isomer, unassigned) [Compound 178] | 100 to 1000 nM | D (D: ≥ 5 and < 10) | E (E: >1 and < 5) | < 100 nM | – |
| Cc1ccc(Oc2ccc(Nc3ncnc4sc5c(c34)CCN(C(=O)/C=C/CN3CC4CCC(C4)C3)C5)cc2C)cn1 [Compound 16, (E)-4-(3-azabicyclo[3.2.1]octan-3-yl)-1-(4-((3-methyl-4-((6-methylpyridin-3-yl)oxy)phenyl)amino)-5,8-dihydropyrido[4′,3′:4,5]thieno[2,3-d]pyrimidin-7(6H)-yl)but-2-en-1-one benzenesulfonate salt] | – | D (D: ≥ 5 and < 10) | D (D: ≥ 5 and < 10) | < 100 nM | 100 to 1000 nM |
| Cc1ccc(Oc2ccc(Nc3ncnc4sc5c(c34)CC(C)N(C(=O)C=CCN(C)C)C5C)cc2C)cn1 (single isomer, unassigned) [Compound 161] | < 100 nM | D (D: ≥ 5 and < 10) | E (E: >1 and < 5) | < 100 nM | – |
| C=CC(=O)N1[C@H](C)Cc2c(sc3ncnc(Nc4ccc(Oc5ccc(C)nc5)c(C)c4)c23)[C@H]1C (racemic) [Compound 166, 1-(6,8-trans-dimethyl-4-((3-methyl-4-((6-methylpyridin-3-yl)oxy)phenyl)amino)-5,8-dihydropyrido[4′,3′:4,5]thieno[2,3-d]pyrimidin-7(6H)-yl)prop-2-en-1-one] | 100 to 1000 nM | B (B: ≥ 20 and < 100) | C (C: ≥ 10 and < 20) | < 100 nM | – |
| Cc1nc2cc(Oc3ccc(Nc4ncnc5sc6c(c45)CCN(C(=O)/C=C/CN(C)C)C6)cc3C)ccn2n1 [Compound 127, (E)-4-(dimethylamino)-1-(4-((3-methyl-4-((2-methyl-[1,2,4]triazolo[1,5-a]pyridin-7-yl)oxy)phenyl)amino)-5,6-dihydropyrido[4′,3′:4,5]thieno[2,3-d]pyrimidin-7(8H)-yl)but-2-en-1-one] | 1000 to 10000 nM | A (A: ≥100) | B (B: ≥ 20 and < 100) | < 100 nM | – |
| Cc1ccc(Oc2ccc(Nc3ncnc4sc5c(c34)CCN(C(=O)/C=C/CN3CCCC34CCC4)C5)cc2C)cn1 [Compound 115] | 100 to 1000 nM | C (C: ≥ 10 and < 20) | D (D: ≥ 5 and < 10) | < 100 nM | – |
| Cc1ccc(Oc2ccc(Nc3ncnc4sc5c(c34)C[C@@H](C)N(C(=O)/C=C/CN(C)C)[C@@H]5C)cc2C)cn1 (racemic) [Compound 165, (E)-1-(6,8-trans-dimethyl-4-((3-methyl-4-((6-methylpyridin-3-yl)oxy)phenyl)amino)-5,8-dihydropyrido[4′,3′:4,5]thieno[2,3-d]pyrimidin-7(6H)-yl)-4-(dimethylamino)but-2-en-1-one] | 1000 to 10000 nM | B (B: ≥ 20 and < 100) | D (D: ≥ 5 and < 10) | 100 to 350 nM | – |
